Reference: article PMC9782245, “Synthesis and Structural Optimization of 2,7,9-Trisubstituted purin-8-ones as FLT3-ITD Inhibitors” (International Journal of Molecular Sciences, 2022)
Several values for one entry are separate records, joined by “and”; a condition that tells them apart may be missing. Identical values can stand only once. Like-named read-outs stand apart in the source and are kept apart here.

Key:
MV4-11 cells = assay: Resazurin-based viability assay, MV4-11; type: cell-based, Human; details: for GI50: Homo sapiens, MV4-11, 72 h, resazurin, at least duplicate experiments
Source text: (§1) In parallel to kinase assays, we measured the effect of compounds on the viability of cancer cell lines MV4-11 and K562 using a resazurin-based assay. MV4-11 is an AML cell line dependent on a constitutively activated FLT3-ITD kinase with high sensitivity to FLT3 inhibition, K562 cells (chronic myelogenous leukemia) are independent on FLT3.
(§2) Human cell lines were obtained from the European Collection of Authenticated Cell Cultures (K562) and Cell lines service (MV4-11) and were cultivated according to the provider’s instructions. Briefly, cells were maintained in RPMI-1640 (MV4-11) or DMEM (K562) supplemented with 10% fetal bovine serum, penicillin (100 U/mL), and streptomycin (0.1 mg/mL) at 37 °C in 5% CO2. For the viability assays, cells were treated in triplicate with six different doses of each compound for 72 h. After treatments, the resazurin (Sigma Aldrich, St. Louis, MO, USA) solution was added for 4 h, and the fluorescence of resorufin corresponding to live cells was measured at 544/590 nm (excitation/emission) using a Fluoroskan Ascent microplate reader (Labsystems). The GI50 value, the drug concentration lethal to 50% of the cells, was calculated from the dose-response curves that resulted from the assays.

CDK2/E = CDK2/E (Homo sapiens, UniProt P24941); assay: Kinase inhibition assay CDK2/E; type: biochemical
Description: (§3) Newly prepared compounds 12–15 were assayed for inhibition of FLT3-ITD kinase as well as CDK4 and CDK2, known off-targets of structurally related compounds. We observed that CDK4 was sensitive to nearly all compounds with IC50 values in mid-nanomolar values.
(§4) CDK/cyclin complexes and FLT3 kinases were assayed as previously described. Protein kinase selectivity was evaluated at a single concentration (1 µM) by screening against 30 enzymes at Eurofins Discovery (France).

FLT3-ITD = molecular target: T1, FLT3-ITD (Homo sapiens, UniProt P36888, ITD); assay: Kinase inhibition assay FLT3-ITD; type: biochemical
T1 sequence (P36888 27-993): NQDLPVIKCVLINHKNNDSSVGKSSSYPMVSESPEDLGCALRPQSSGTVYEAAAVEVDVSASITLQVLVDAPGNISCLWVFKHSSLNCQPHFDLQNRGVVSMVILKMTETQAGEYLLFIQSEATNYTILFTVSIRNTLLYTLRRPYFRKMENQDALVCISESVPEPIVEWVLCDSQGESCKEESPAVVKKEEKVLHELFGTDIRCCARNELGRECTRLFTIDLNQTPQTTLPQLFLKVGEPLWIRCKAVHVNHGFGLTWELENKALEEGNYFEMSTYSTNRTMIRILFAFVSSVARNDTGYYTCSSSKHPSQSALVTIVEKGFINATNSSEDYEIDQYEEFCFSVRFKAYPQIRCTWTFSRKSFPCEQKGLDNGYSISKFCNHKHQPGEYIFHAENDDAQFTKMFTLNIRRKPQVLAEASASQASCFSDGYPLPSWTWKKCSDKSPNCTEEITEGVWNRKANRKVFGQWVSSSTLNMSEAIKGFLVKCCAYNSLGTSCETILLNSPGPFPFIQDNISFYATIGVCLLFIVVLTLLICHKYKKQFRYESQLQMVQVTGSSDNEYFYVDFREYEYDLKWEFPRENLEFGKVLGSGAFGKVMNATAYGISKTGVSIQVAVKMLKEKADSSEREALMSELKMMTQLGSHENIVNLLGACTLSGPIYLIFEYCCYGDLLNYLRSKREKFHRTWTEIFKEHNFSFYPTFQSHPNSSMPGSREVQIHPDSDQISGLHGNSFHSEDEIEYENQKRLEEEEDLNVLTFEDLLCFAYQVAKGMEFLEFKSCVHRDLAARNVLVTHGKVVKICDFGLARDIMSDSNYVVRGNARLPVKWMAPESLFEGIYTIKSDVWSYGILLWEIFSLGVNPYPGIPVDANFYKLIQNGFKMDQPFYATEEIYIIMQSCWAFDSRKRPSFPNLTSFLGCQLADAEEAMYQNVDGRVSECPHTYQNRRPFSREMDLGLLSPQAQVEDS
Description: as §3, §4

K562 cells = assay: Resazurin-based viability assay, K562; type: cell-based; details: Homo sapiens, 72 h, at least duplicate experiments
Source text: as §1, §2

CDK4/D1 = CDK4/D1 (Homo sapiens, UniProt P11802); assay: Kinase inhibition assay CDK4/D1; type: biochemical
Sequence of CDK4/D1 (P11802 whole entry): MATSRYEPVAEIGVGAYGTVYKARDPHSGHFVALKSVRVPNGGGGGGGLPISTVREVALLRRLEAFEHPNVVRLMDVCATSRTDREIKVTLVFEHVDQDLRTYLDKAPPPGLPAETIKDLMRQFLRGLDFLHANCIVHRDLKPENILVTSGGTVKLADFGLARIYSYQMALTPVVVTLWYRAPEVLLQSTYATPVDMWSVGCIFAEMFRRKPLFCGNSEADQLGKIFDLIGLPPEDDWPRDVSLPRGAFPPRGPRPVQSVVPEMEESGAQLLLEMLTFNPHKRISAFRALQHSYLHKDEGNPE
Sequence of CDK4/D1 (P24385 whole entry partner): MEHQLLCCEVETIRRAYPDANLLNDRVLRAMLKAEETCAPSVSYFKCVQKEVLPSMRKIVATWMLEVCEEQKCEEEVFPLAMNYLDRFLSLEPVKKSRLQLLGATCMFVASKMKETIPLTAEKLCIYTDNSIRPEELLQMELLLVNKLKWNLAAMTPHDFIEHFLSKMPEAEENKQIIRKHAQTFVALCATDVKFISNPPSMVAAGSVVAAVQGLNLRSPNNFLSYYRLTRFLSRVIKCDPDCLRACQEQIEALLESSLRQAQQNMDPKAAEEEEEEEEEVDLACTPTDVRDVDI
Description: as §3, §4

[1] = at least duplicate experiments, read-out: IC50 CDK2/E
[2] = at least duplicate experiments, read-out: IC50 FLT3-ITD
[3] = at least duplicate experiments, read-out: IC50 CDK4/D1

| SMILES | GI50 (MV4-11 cells) | IC50 (CDK2/E; [1]) | IC50 (FLT3-ITD; [2]) | melting point | GI50 (K562 cells) | IC50 (CDK4/D1; [3]) | IC50 (CDK2/E; read-out: IC50 CDK2) | IC50 (FLT3-ITD; read-out: IC50 FLT3) | IC50 (CDK4/D1; read-out: IC50 CDK4) | selectivity index (ratio for GI50's of K562 and MV4-11 cells) (MV4-11 cells; K562 / MV4-11) |
| --- | --- | --- | --- | --- | --- | --- | --- | --- | --- | --- |
| Cc1ccc(-n2c(=O)n(C)c3cnc(Nc4ccc(N5CCNCC5)cc4)nc32)cc1 [14o] | 460 nM | > 1000 nM and 2400 nM | 160 nM | 126 to 128 °C | 7620 nM | 169 nM |  |  |  |  |
| Cn1c(=O)n(C2CCCCCC2)c2nc(Nc3ccc(N4CCNCC4)cc3)ncc21 [14h] | 100 nM | 60 nM | 34 nM | 256 to 258 °C | 1480 nM | 22 nM | ≤ 300 nM | ≤ 300 nM | ≤ 300 nM |  |
| Cn1c(=O)n(C2CCCCCCC2)c2nc(Nc3ccc(N4CCNCC4)cc3)ncc21 [14i] | 90 nM | 90 nM | 12 nM |  | 2460 nM | 25 nM | ≤ 300 nM | ≤ 300 nM | ≤ 300 nM | > 20 |
| FC(F)(F)c1nc2cnc(Nc3ccc(N4CCNCC4)cc3)nc2n1C1CCCC1 [12a] | 220 nM | 1630 nM | 224 nM | 232 to 234 °C | 1110 nM | 51 nM |  |  |  |  |
| COc1ccc(-n2c(=O)n(C)c3cnc(Nc4ccc(N5CCNCC5)cc4)nc32)cc1 [14q] | 400 nM | > 1000 nM and 6180 nM | 262 nM | 270 to 272 °C | 1970 nM | 488 nM |  |  |  |  |
| O=c1[nH]c2cnc(Nc3ccc(N4CCNCC4)cc3)nc2n1C1CCCCC1 [13b] | 690 nM | 3360 nM | 1590 nM |  | 1780 nM | 782 nM |  |  |  |  |
| CC(C)n1c(=O)n(C2CCCCC2)c2nc(Nc3ccc(N4CCNCC4)cc3)ncc21 [15b] | 130 nM | 10300 nM | 68 nM | 132 to 134 °C | 1510 nM | 2120 nM |  |  |  |  |
| CC(C)n1c(=O)n(C2CCCCCC2)c2nc(Nc3ccc(N4CCNCC4)cc3)ncc21 [15d] | 100 nM | 2320 nM | 27 nM |  | 1180 nM | 1100 nM |  |  |  |  |
| O=c1[nH]c2cnc(Nc3ccc(N4CCNCC4)cc3)nc2n1C1CCCC1 [13a] | 680 nM | 24500 nM | 2370 nM | 200 to 202 °C | 1630 nM | 2880 nM |  |  |  |  |
| CC1CCC(n2c(=O)[nH]c3cnc(Nc4ccc(N5CCNCC5)cc4)nc32)CC1 (centres unmarked) [13c] | 700 nM | 2560 nM | 1050 nM |  | 1900 nM | 451 nM |  |  |  |  |
| O=c1[nH]c2cnc(Nc3ccc(N4CCNCC4)cc3)nc2n1C1CCCCCC1 [13d] | 560 nM | 1000 nM | 425 nM |  | 1580 nM | 479 nM |  |  |  |  |
| FC(F)(F)c1nc2cnc(Nc3ccc(N4CCNCC4)cc3)nc2n1C1CCCCCC1 [12d] | 250 nM | 150 nM | 88 nM | 216 to 218 °C | 2450 nM | 22 nM |  |  |  |  |
